Experiments:
Assay type in all cases: in vivo, rat
Sprague Dawley rats [1] = experiment: Oral delivery of insulin in rats with delivery agent: change in blood glucose; conditions: 0.25 mg/kg insulin + 100 mg/kg delivery agent
Method: (§1) General anesthesia was induced in Sprague Dawley rats (250-350 gram) with 5% isoflurane in an anesthetic chamber, and the anesthesia was maintained with 2% isoflurane in 98% oxygen carrier gas up to the end of the study.
(§2) Jugular vein cannulation was carried out first for blood sampling by creating an incision just above the right clavicle. Using blunt forceps, the connective and adipose tissue were pushed aside and the jugular vein was exposed. The distal end of the exposed jugular vein was ligated, while its proximal end was strained to occlude the blood flow momentarily. A portion of the vessel near to the distal end was nipped, and the silicon catheter was inserted toward the proximal direction. After the catheter was tightened with a silk suture, the skin wound was closed with surgical staples.
(§3) The jejunum was prepared as follows: the proximal jejunum section was identified first. Plasma insulin and blood glucose levels were determined from a blood sample from the […] and used as a baseline.
(§4) The animal's abdominal cavity was opened. After the jejunum was identified, the part of the proximal segment was nipped with surgical scissors. A dosing tubing connected to a 1 ml syringe was introduced into the incised jejunum and carefully dosed. After dosing, the dosing tubing was removed. Then, a 2-cm polyethylene tubing was inserted into the jejunum so that the cut opening was located in the middle of the tubing. Both ends of the tube were tied with suture with the jejunum tissue to secure the jejunum, and, after the wound dried, a vet bond was applied over the top of the wound with a cotton swab. A 2 cm bridge tubing was placed to maintain the intestinal fluid flow intact.
(§5) After dosing and installation of the bridge, the exposed intestines were gently pushed back into place. The exposed wounds were covered with a wet gauge, and then with a paraffin film to prevent dehydration. Thereafter, blood samplings were performed at scheduled time-points.
(§6) Dose: 0.25 mg/kg Insulin, 100 mg/kg Delivery Agent, Concentration: 0.25 mg/ml, 100 mg/ml. Dose volume: 1 ml/kg.
(§7) Human recombinant insulin (ICN Biomedicals, Aurora, Ohio) was dissolved in deionized water (ph˜6.5) to obtain stock insulin solutions having a concentration of 15 mg/ml. 7-cyclopropylheptanoic acid was dissolved in deionized water to obtain a 200 mg/ml delivery agent solution. The free acid form of the delivery agent was converted to the sodium salt by adding one equivalent of sodium hydroxide. Solutions were vortexed, sonicated, and heated. If necessary, additional sodium hydroxide was added in μl quantities to achieve uniform solubility in the delivery agent solutions. Solutions were adjusted to a pH of 7.5-8.5 by the addition of either hydrochloric acid or sodium hydroxide, as appropriate. The insulin stock solution was then added to the delivery agent solutions to obtain an administration solution ultimately having an insulin concentration of 0.25 mg/ml. After solubilization and drug addition, administration solutions were brought to a final volume by the addition of deionized water.

[2] = Oral delivery of insulin in rats with delivery agent: serum insulin by ELISA; conditions: procedure of Example 2 (0.25 mg/kg insulin, 100 mg/kg delivery agent)
Method: as §1, §2, §3, §4, §5, §6, §7
The insulin assay was performed as follows. Concentrations of insulin were quantified in rat serum using a sandwich-type ELISA kit (Diagnostic Systems Laboratories, Inc., Webster, Tex.). Samples were collected into capiject tubes containing a clot activator (red top, serum separator tubes). Samples were allowed to clot for ˜20 minutes at 4° C. […]

Sprague Dawley rats [3] = experiment: Oral delivery of insulin in rats with delivery agent: change in blood glucose; conditions: delivery agent: insulin = 200 mg: 0.5 mg per Kg

O=C(O)CCCCCCC1CC1 [Compound 1, 7-cyclopropylheptanoic acid]
Decrease of blood glucose (%) Average Value (Sprague Dawley rats [1]; time 0 min): 0%
Decrease of blood glucose (%) Average Value (Sprague Dawley rats [1]; time 5 min): −1.5%
Decrease of blood glucose (%) Average Value (Sprague Dawley rats [1]; time 10 min): −15.3%
Decrease of blood glucose (%) Average Value (Sprague Dawley rats [1]; time 20 min): −32.9%
Decrease of blood glucose (%) Average Value (Sprague Dawley rats [1]; time 40 min): −38.7%
Decrease of blood glucose (%) Average Value (Sprague Dawley rats [1]; time 60 min): −36.6%
Decrease of blood glucose (%) Average Value (Sprague Dawley rats [1]; time 90 min): −21.8%

O=C(O)CCCCCCCCC(=O)NC1CC1 [Compound 9, 10-(cyclopropylamino)-10-oxodecanoic acid]
Max Mean Cmax [uU/mL] [2]: 142.7 ± 62.7 uU/mL

COC(=O)CCCCCCC(=O)NC1CC1 [Compound 11]
Max Mean Cmax [uU/mL] [2]: 84.93 ± 57.8 uU/mL

COC(=O)CCCCCCCCC(=O)NC1CC1 [Compound 12]
Max Mean Cmax [uU/mL] [2]: 340.4 ± 191.3 uU/mL

O=C(O)CCCCCCC(=O)NCC1CC1 [Compound 13]
% of Glucose Reduction from Control (Sprague Dawley rats [3]; time 0 min): −0.862%
% of Glucose Reduction from Control (Sprague Dawley rats [3]; time 15 min): −10.523%
% of Glucose Reduction from Control (Sprague Dawley rats [3]; time 30 min): −20.866%
% of Glucose Reduction from Control (Sprague Dawley rats [3]; time 45 min): −28.011%
% of Glucose Reduction from Control (Sprague Dawley rats [3]; time 60 min): −32.952%

COC(=O)CCCCCCC(=O)NCC1CC1 [Compound 14]
Max Mean Cmax [uU/mL] [2]: 71.3 ± 35.2 uU/mL

O=C(O)CCCCCCCCC(=O)NCC1CC1 [Compound 15]
Max Mean Cmax [uU/mL] [2]: 71.2 ± 33.7 uU/mL
